Data taken from patent publication US20050009894A1 (Aventis Pharma S.A., priority 2001, published 2005).

Each molecule was assayed against T1, human KDR enzyme (Homo sapiens, UniProt P35968) (assay: Phosphorylation of the substrate PLCγ by the enzyme KDR in vitro (flashplate technique)). Settings: Activity, Table VII, degrees of activity by IC50 range.
T1 construct: The cytoplasmic domain of human KDR enzyme is cloned in the form of a GST fusion; GST; made in house; host or cells: SF21 insect cells (baculovirus, pFastBac)
T1 sequence (P35968 786-1356 limits assumed): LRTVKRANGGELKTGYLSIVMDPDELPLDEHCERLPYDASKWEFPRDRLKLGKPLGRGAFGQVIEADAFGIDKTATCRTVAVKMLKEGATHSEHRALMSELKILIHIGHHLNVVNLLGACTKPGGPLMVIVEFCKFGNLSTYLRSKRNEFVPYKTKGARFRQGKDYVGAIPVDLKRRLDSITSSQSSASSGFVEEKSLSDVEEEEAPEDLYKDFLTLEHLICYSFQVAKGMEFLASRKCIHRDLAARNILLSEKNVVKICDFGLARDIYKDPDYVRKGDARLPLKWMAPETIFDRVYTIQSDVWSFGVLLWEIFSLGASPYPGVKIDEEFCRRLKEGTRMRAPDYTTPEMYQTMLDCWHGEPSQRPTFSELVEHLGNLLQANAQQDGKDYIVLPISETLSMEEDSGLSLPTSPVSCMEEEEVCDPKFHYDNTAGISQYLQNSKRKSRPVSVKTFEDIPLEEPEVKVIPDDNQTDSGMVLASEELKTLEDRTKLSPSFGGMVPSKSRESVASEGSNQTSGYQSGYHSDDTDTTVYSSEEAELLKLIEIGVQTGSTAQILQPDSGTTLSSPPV
Type: biochemical
How it was run: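 GST-fused human KDR cytoplasmic domain (Sf21 baculovirus, ~60% pure; 100 ng/well) phosphorylating 2 μg GST-PLCγ SH2-SH3 fragment in MOPS pH 7.2 with MgCl2/MnCl2, 1 h at 37° C. Started with γ33P-ATP plus cold ATP (2 μM in start solution); flashplate radioactivity. % inhibition vs no-compound control; IC50 from dose-response curves.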

| Compound | IC50 [µM] |
| --- | --- |
| O=C(Cc1ccccc1)Oc1cc(-c2nc3ccccc3[nH]2)[nH]n1 [Example 219, Phenyl-acetic acid 5-(1H-benzoimidazol-2-yl)-1H-pyrazol-3-yl ester] | > 3 |

Same assay, conditions: Table VII, degrees of activity by IC50 range; read-out: Activity

| Compound | IC50 [µM] |
| --- | --- |
| O=C(NCc1ccc(-c2ccccn2)s1)c1ccc2[nH]c(-c3n[nH]c4ccccc34)nc2c1 [Example 173, 2-(1H-Indazol-3-yl)-1H-benzoimidazole-5-carboxylic acid (5-pyridin-2-yl-thiophen-2-ylmethyl)-amide] | 0.3 to 3 |
| O=C(Oc1cc(-c2nc3ccccc3[nH]2)[nH]n1)c1c(F)c(F)c(F)c(F)c1F [Example 220, 2,3,4,5,6-Pentafluoro-benzoic acid 5-(1H-benzoimidazol-2-yl)-1H-pyrazol-3-yl ester] | > 3 |
| O=C(NCc1cc2ccccc2s1)c1ccc2[nH]c(-c3n[nH]c4ccccc34)nc2c1 [Example 54, 2-(1H-Indazol-3-yl)-1H-benzoimidazole-5-carboxylic acid (benzo[b]thiophen-2-ylmethyl)-amide] | 0.3 to 3 |
| O=C(NCc1ccc([N+](=O)[O-])cc1)c1cccc2nc(-c3n[nH]c4ccccc34)[nH]c12 [Example 79, 2-(1H-Indazol-3-yl)-3H-benzoimidazole-4-carboxylic acid 4-nitro-benzylamide] | > 3 |
| CS(=O)(=O)c1ccc(-c2ccc3nc(-c4[nH]nc5ccccc45)[nH]c3c2)cc1 [Example 145, 3-[6-(4-Methanesulfonyl-phenyl)-1H-benzoimidazol-2-yl]-2H-indazole] | > 3 |
| O=C(NCc1csc2ccccc12)c1ccc2[nH]c(-c3n[nH]c4ccccc34)nc2c1 [Example 63, 2-(1H-Indazol-3-yl)-1H-benzoimidazole-5-carboxylic acid (benzo[b]thiophen-3-ylmethyl)-amide] | < 0.3 |
| CC(C)(C)OC(=O)N1CCC(CNC(=O)c2ccc3[nH]c(-c4n[nH]c5ccccc45)nc3c2)CC1 [Example 36, 4-({[2-(1H-Indazol-3-yl)-1H-benzoimidazole-5-carbonyl]-amino}-methyl)-piperidine-1-carboxylic acid tert-butyl ester] | 0.3 to 3 |
| O=C(NCc1ccc(Br)cc1)c1cccc2nc(-c3n[nH]c4ccccc34)[nH]c12 [Example 75, 2-(1H-Indazol-3-yl)-3H-benzoimidazole-4-carboxylic acid 4-bromo-benzylamide] | > 3 |
| N#Cc1ccc(CNC(=O)c2ccc3[nH]c(-c4n[nH]c5ccccc45)nc3c2)cc1 [Example 59, 2-(1H-Indazol-3-yl)-1H-benzoimidazole-5-carboxylic acid 4-cyano-benzylamide] | 0.3 to 3 |
| Clc1ccc(-c2ccc3nc(-c4[nH]nc5ccccc45)[nH]c3c2)cc1 [Example 101, 3-[6-(4-Chloro-phenyl)-1H-benzoimidazol-2-yl]-2H-indazole] | > 3 |
| CSc1ccccc1CNC(=O)c1ccc2[nH]c(-c3n[nH]c4ccccc34)nc2c1 [Example 62, 2-(1H-Indazol-3-yl)-1H-benzoimidazole-5-carboxylic acid 2-methylsulfanyl-benzylamide] | < 0.3 |
| Cc1cc(CNC(=O)c2ccc3[nH]c(-c4n[nH]c5ccccc45)nc3c2)c(C)o1 [Example 53, 2-(1H-Indazol-3-yl)-1H-benzoimidazole-5-carboxylic acid (2,5-dimethyl-furan-3-ylmethyl)-amide] | 0.3 to 3 |
| Fc1ccc(-c2ccc3nc(-c4[nH]nc5ccccc45)[nH]c3c2)cc1 [Example 100, 3-[6-(4-Fluoro-phenyl)-1H-benzoimidazol-2-yl]-2H-indazole] | 0.3 to 3 |
| CC(=O)Nc1cccc(OCCCNC(=O)c2ccc3[nH]c(-c4n[nH]c5ccccc45)nc3c2)c1 [Example 55, 2-(1H-Indazol-3-yl)-1H-benzoimidazole-5-carboxylic acid [3-(3-acetylamino-phenoxy)-propyl]-amide] | 0.3 to 3 |
| Cn1c(CNC(=O)c2ccc3[nH]c(-c4n[nH]c5ccccc45)nc3c2)nc2ccccc21 [Example 70, 2-(1H-Indazol-3-yl)-1H-benzoimidazole-5-carboxylic acid (1-methyl-1H-benzoimidazol-2-ylmethyl)-amide] | 0.3 to 3 |
| Fc1ccc(/C=C/c2ccc3nc(-c4[nH]nc5ccccc45)[nH]c3c2)cc1 [Example 138, 3-{6-[2-(4-Fluoro-phenyl)-vinyl]-1H-benzoimidazol-2-yl}-2H-indazole] | > 3 |
| O=C(NCc1ccc(Oc2ccccc2)cc1)c1ccc2[nH]c(-c3n[nH]c4ccccc34)nc2c1 [Example 48, 2-(1H-Indazol-3-yl)-1H-benzoimidazole-5-carboxylic acid 4-phenoxy-benzylamide] | 0.3 to 3 |
| O=C(COc1cc(-c2nc3ccccc3[nH]2)[nH]n1)C1CC1 [Example 213, 2-[5-(1H-Benzoimidazol-2-yl)-1H-pyrazol-3-yloxy]-1-cyclopropyl-ethanone] | > 3 |
| Clc1ccc(/C=C/c2ccc3nc(-c4[nH]nc5ccccc45)[nH]c3c2)cc1 [Example 139, 3-{6-[2-(4-Chloro-phenyl)-vinyl]-1H benzoimidazol-2-yl}-2H-indazole] | > 3 |
| Fc1cc(-c2ccc3nc(-c4[nH]nc5ccccc45)[nH]c3c2)ccc1-c1ccccc1 [Example 131, 3-[6-(2-Fluoro-biphenyl-4-yl)-1H-benzoimidazol-2-yl]-2H-indazole] | > 3 |
| O=C(NCc1ccc(-c2cc(Cl)cc(Cl)c2)cc1)c1ccc2[nH]c(-c3n[nH]c4ccccc34)nc2c1 [Example 163, 2-(1H-Indazol-3-yl)-1H-benzoimidazole-5-carboxylic acid (3′,5′-dichloro-biphenyl-4-ylmethyl)-amide] | > 3 |
| O=C(NCc1ccccc1F)c1ccc2[nH]c(-c3n[nH]c4ccccc34)nc2c1 [Example 154, 2-(1H-Indazol-3-yl)-1H-benzoimidazole-5-carboxylic acid 2-fluoro-benzylamide] | 0.3 to 3 |
| Cc1cc(C)cc(CNC(=O)c2cccc3nc(-c4n[nH]c5ccccc45)[nH]c23)c1 [Example 92, 2-(1H-Indazol-3-yl)-3H-benzoimidazole-4-carboxylic acid 3,5-dimethyl-benzylamide] | 0.3 to 3 |
| COc1cccc(CNC(=O)c2ccc3[nH]c(-c4n[nH]c5ccccc45)nc3c2)c1 [Example 40, 2-(1H-Indazol-3-yl)-1H-benzoimidazole-5-carboxylic acid 3-methoxy-benzylamide] | 0.3 to 3 |
| Cc1cc(F)ccc1-c1ccc2nc(-c3[nH]nc4ccccc34)[nH]c2c1 [Example 137, 3-[6-(4-Fluoro-2-methyl-phenyl)-1H-benzoimidazol-2-yl]-2H-indazole] | 0.3 to 3 |
| CC(C)(C)c1ccc(-c2ccc3nc(-c4[nH]nc5ccccc45)[nH]c3c2)cc1 [Example 118, 3-[6-(4-tert-Butyl-phenyl)-1H-benzoimidazol-2-yl]-2H-indazole] | > 3 |
| O=S(=O)(Cc1ccccc1COc1cc(-c2nc3ccccc3[nH]2)[nH]n1)c1ccccc1 [Example 191, 2-[5-(2-Benzenesulfonylmethylbenzyloxy)-2H-pyrazol-3-yl]-1H-benzoimidazole] | 0.3 to 3 |

Same assay, conditions: read-out: IC50 (μM) on inhibition of the phosphory-lation of PLCγ by KDR

| Compound | IC50 [µM] |
| --- | --- |
| CCc1cc(-c2nc3cc(C)c(C)cc3[nH]2)[nH]n1 [Example 23, 2-(5-Ethyl-2H-pyrazol-3-yl)-5,6-dimethyl-1H-benzimidazole] | 2 |
| Cc1cc2nc(-c3n[nH]c4ccccc34)[nH]c2cc1C [Example 15, 5,6-Dimethyl-2-(1H-indazol-3-yl)-1H-benzimidazole] | 0.8 |
